Columns and labels:
[1] = test system: 18 pro-inflammatory genes; assay: Ex vivo kidney slice assay; type: cell-based; details: rat kidney slice; 24-hour incubation; relative to PBS
Procedure: In in vitro assays, the potential for toxicity was assessed using a biochemical fluorescent binding assay (FBA) and a liver or kidney slice assay. The FBA is performed by incubating a fluorescent dye with each compound, and immediately measuring fluorescence. Highly fluorescent compounds have the potential to produce toxicity in vivo. The liver or kidney slice assay is performed by incubating a slice of tissue from a core liver sample isolated from rat. Following a 24-hour incubation, RNA is extracted from the tissue slice, and the expression levels of 18 pro-inflammatory genes are measured. An induction in pro-inflammatory gene expression indicates a potential for pro-inflammatory effects in vivo.
Ex vivo assays were performed with liver or kidney tissue slices. The liver or kidney slice assay is performed by incubating a slice of tissue from a core liver or kidney sample isolated from rat. Following a 24-hour incubation, RNA is extracted from the tissue slice, and the expression levels of 18 pro-inflammatory genes, including IFIT, are measured. A log 2 transformation of the fold change (Log2-FC) relative to PBS treatment was performed. An induction in pro-inflammatory gene expression indicates a potential for pro-inflammatory effects in vivo.

[2] = Pharmacokinetic profile after three 10 mg/kg subcutaneous injections in C57BL6 and JCK mice; type: in vivo, mouse; details: three 10 mg/kg s.c.; for % Parent: after 21 days
Procedure: The pharmacokinetic behavior of RG4326 was further characterized in wild type (C57B16) mice and PKD (JCK) mice. Groups of 5 mice each received three 10 mg/kg subcutaneous injections on each of three consecutive days. At one, four, seven, 14 and 21 days after the third and final injection, mice were sacrificed and plasma, kidney and liver samples were collected. For measurement of RG4326, RG4326 was extracted using liquid-liquid extraction (LLE) and/or solid-phase extraction (SPE), which was then analyzed for identity and concentration using ion-pairing-reversed-phase high performance liquid chromatography coupled with time-of-flight mass spectrometry (IP—RP-HPLC-TOF).

Compound: COC1C(OP(=O)(S)OC[C@H]2O[C@@H](n3cnc4c(N)ncnc43)C(F)C2OP(=O)(S)OC[C@H]2O[C@@H](n3ccc(N)nc3=O)C(F)C2OP(=O)(S)OC[C@H]2O[C@@H](n3ccc(=O)[nH]c3=O)C(F)C2OP(=O)(S)OC[C@H]2O[C@@H](n3ccc(=O)[nH]c3=O)C(OC)C2OP(=O)(S)OC[C@]23O[C@@H](n4ccc(=O)[nH]c4=O)C(O[C@H]2C)C3OP(=O)(S)OC[C@]23O[C@@H](n4cnc5c(=O)[nH]c(N)nc54)C(O[C@H]2C)C3O)[C@@H](COP(=O)(S)OC2C3O[C@@H](C)[C@]2(COP(=O)(S)OC2C4O[C@@H](C)[C@]2(CO)O[C@H]4n2cnc4c(N)ncnc42)O[C@H]3n2cnc3c(=O)[nH]c(N)nc32)O[C@H]1n1ccc(N)nc1=O (stereo in doubt) [RG4326, ASGSCMAFCFUFUMUSGS]
- Ex Vivo Kidney Slices Assay Pro-Inflammatory Signature Score (Log2-FC) [1]: −0.30 ± 0.22 Log2-FC
- AUC0-21 days ([2]; Normal C57BL6 mice, Kidney): 282 µg·days/g
- C24 h ([2]; Normal C57BL6 mice, Kidney): 61.4 µg/g
- % Parent ([2]; Normal C57BL6 mice, Kidney): >90%
- AUC0-21 days ([2]; Normal C57BL6 mice, Liver): 17 µg·days/g
- C24 h ([2]; Normal C57BL6 mice, Liver): 1.6 µg/g
- % Parent ([2]; Normal C57BL6 mice, Liver): >90%
- K/L Ratio (AUC) ([2]; Normal C57BL6 mice): 17
- K/L Ratio (C24 h) ([2]; Normal C57BL6 mice): 38
- AUC0-21 days ([2]; PKD JCK mice, Kidney): 497 µg·days/g
- C24 h ([2]; PKD JCK mice, Kidney): 66.5 µg/g
- % Parent ([2]; PKD JCK mice, Kidney): >90%
- AUC0-21 days ([2]; PKD JCK mice, Liver): 37 µg·days/g
- C24 h ([2]; PKD JCK mice, Liver): 5.9 µg/g
- % Parent ([2]; PKD JCK mice, Liver): >90%
- K/L Ratio (AUC) ([2]; PKD JCK mice): 13
- K/L Ratio (C24 h) ([2]; PKD JCK mice): 11
- parent compound remaining after 21 days ([2]; both plasma and tissues, C57B16 and JCK mice): over 90%

Reference: patent publication US20250333745A1, “METHODS AND COMPOSITIONS FOR TREATMENT OF POLYCYSTIC KIDNEY DISEASE” (Regulus Therapeutics Inc., priority 2016, published 2025)
